Assays:
α2A-AR = target: T1, α2A-AR (Homo sapiens, UniProt P08913); experiment: α2A-AR antagonist assay (calcium flux, Fluo-4, FlexStation II); type: cell-based; settings: antagonistic activity against agonist UK14304 in cells stably expressing α2A-AR/Ga16
T1 construct: expressed in transfected cells; stably expressing α2A-AR/Gα16
T1 sequence (P08913 1-465): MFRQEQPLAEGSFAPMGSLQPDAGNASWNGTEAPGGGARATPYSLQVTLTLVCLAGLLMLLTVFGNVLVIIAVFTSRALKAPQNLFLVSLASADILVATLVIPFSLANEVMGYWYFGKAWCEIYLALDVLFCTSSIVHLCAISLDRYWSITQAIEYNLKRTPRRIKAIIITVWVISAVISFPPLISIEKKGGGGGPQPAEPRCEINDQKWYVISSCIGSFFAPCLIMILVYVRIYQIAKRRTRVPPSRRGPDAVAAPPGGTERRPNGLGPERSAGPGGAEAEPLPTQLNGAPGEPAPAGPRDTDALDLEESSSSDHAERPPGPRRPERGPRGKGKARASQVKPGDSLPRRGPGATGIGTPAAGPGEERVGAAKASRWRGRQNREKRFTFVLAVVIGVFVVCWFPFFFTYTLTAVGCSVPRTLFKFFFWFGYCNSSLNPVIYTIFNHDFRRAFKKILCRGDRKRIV
From the text: By establishing a cell line co-transfected with the target receptor and Ga16, the receptor can be activated to cause the activation of Gα16 protein, which in turn activates phospholipase C (PLC) to produce IP3 and DAG. IP3 can bind to the IP3 receptors on the endoplasmic reticulum and mitochondria in the cell, thereby causing the release of intracellular calcium. Therefore, measuring the changes in intracellular calcium can be used as a method to detect the activation state of the target receptor. Fluo-4/AM is a calcium fluorescent probe indicator used to measure calcium ions. As a non-polar lipid-soluble compound, after entering the cell, the AM group dissociates under the action of cell lipases and releases Fluo-4; since Fluo-4 is a polar molecule that is not easy to pass through the lipid bilayer membrane, it can keep in the cell for a long time. Finally, the level of Ga protein activation can be reflected by measuring the excited fluorescence intensity.
Before the test, the test compound was dissolved in DMSO to prepare a stock solution, which was diluted with culture medium to the required concentration when used.

type 2 diabetic mice = experiment: Blood sugar lowering effect in high-sugar and high-fat diet-induced type 2 diabetes mouse model; type: in vivo, C57BL\6J mice
From the text: A high-sugar and high-fat diet-induced type 2 diabetes mouse model was used in this experiment, and the following tests were mainly conducted: • 1) Effect of single intraperitoneal administration on basal blood glucose, glucose tolerance and insulin sensitivity in diabetic mice. • 2) Effect of single gavage administration on glucose tolerance and insulin sensitivity in diabetic mice. • 3) Effect of continuous chronic intraperitoneal administration on basal blood glucose in diabetic mice.
C57BL\6J mice were fed with a high-sugar and high-fat diet for 3 consecutive months. The test experiment was conducted after the average body weight of the mice stabilized at more than 50g and the average basal blood sugar value stabilized at more than 12mmol/L.
Blood glucose level was mainly measured by measuring tail vein blood using a blood glucose meter. For the test of basal blood glucose effect, the mice were on a normal diet. The basal blood glucose value before administration was first measured, and then a single intraperitoneal injection or a single gavage of the yohimbine derivative C19 (10 mg/kg mouse body weight) was given, and the venous blood glucose level was measured 15, 30, 60, 90, and 120 minutes after administration. The mouse glucose tolerance test was performed after the mouse has eaten for 16 hours overnight. 30 minutes after a single intraperitoneal injection or a single gavage of the yohimbine derivative C19 (10 mg/kg mouse body weight), glucose (1.5 g/kg) was injected intraperitoneally, and the venous blood glucose level was measured 15, 30, 60, 90, and 120 minutes later. Mouse insulin sensitivity was tested after the mouse has eaten for 6 hours. 30 minutes after a single intraperitoneal injection or single gavage of yohimbine derivative C19 (10 mg/kg mouse body weight), insulin (1 UI/kg) was injected intraperitoneally, and the venous blood glucose level was measured 15, 30, 60, 90, and 120 minutes later. For the effect of chronic administration on blood glucose levels, diabetic mice were intraperitoneally injected with yohimbine derivative C19 (10 mg/kg) every day for 12 consecutive days, and the basal blood glucose level of mice under free diet was measured every day before drug injection. The control group was injected with normal saline or gavage.

[1] = Tissue distribution test in mice; type: in vivo; settings: gavage 10 mg/kg
Experimental: Mice were fasted for more than 12 h and had free access to water. Table 3 Experimental Scheme for tissue distribution of Compound C27 in mice
Mice were fasted for more than 12 h and had free access to water.
• (1) Tissue distribution test in mice: The animals in each group were anesthetized and killed 2 h after administration. The brain, pancreas, heart, liver, and kidney tissues were collected by dissection, washed with physiological saline, and stored in a -20 °C refrigerator for testing. At the same time, 0.3 mL of whole blood was collected and placed in an EDTA-K2 anticoagulant tube. The blood was separated by centrifugation at 11,000 rpm for 5 min and stored in a -20 °C refrigerator for testing.
The concentration of unchanged drug in plasma and tissues was determined.
(2) Tissue distribution test of compound C27 in mice: At corresponding time points (0.25, 2 and 8 h) after gavage administration, mice were bled to death through the abdominal aorta. Brain, heart, liver, lung, pancreas and kidney tissues were immediately collected by dissection, and part of the plasma was collected. The operation was carried out in an ice water bath.
Centrifugation conditions: 11000 rpm for 5 min to separate plasma (about 200 µL).

[2] = relative ratio of tissue distribution concentration to blood concentration

N#Cc1ccc(Cc2noc([C@@H]3[C@H]4C[C@H]5c6[nH]c7ccccc7c6CCN5C[C@@H]4CC[C@@H]3O)n2)cc1 [Compound C19]
IC50 (α2A-AR): 0.3 to 0.5 µM
basal blood glucose level (type 2 diabetic mice; chronic intraperitoneal injection, 10 mg/kg once a day, 12 consecutive days (Figure 8)): stably maintain the basal blood sugar level of diabetic mice at a state closer to the normal level
glucose tolerance (type 2 diabetic mice; single gavage administration, 10 mg/kg (Figure 6)): improve glucose tolerance
insulin sensitivity (type 2 diabetic mice; single gavage administration, 10 mg/kg (Figure 7)): increase insulin sensitivity
basal blood glucose level (type 2 diabetic mice; single intraperitoneal injection, 10 mg/kg (Figure 3)): significantly reduce the high blood sugar level of diabetic mice
glucose tolerance (type 2 diabetic mice; single intraperitoneal injection, 10 mg/kg (Figure 4)): improve glucose tolerance
insulin sensitivity (type 2 diabetic mice; single intraperitoneal injection, 10 mg/kg (Figure 5)): increase insulin sensitivity
pancreatic distribution [1]: good pancreatic distribution
brain tissue distribution compared with yohimbine [1, 2]: lower brain tissue distribution than yohimbine
brain tissue distribution, times lower than that of yohimbine [1, 2]: about forty times lower

From patent EP4624470A1, “YOHIMBINE DERIVATIVE, AND PREPARATION METHOD THEREFOR AND PHARMACEUTICAL COMPOSITION AND USE THEREOF” (Shanghai Institute of Materia Medica, Chinese Academy of …, priority 2022, dated 2024)
